Experimental findings from paper PMC11590026, “Synthesis, enzyme inhibition, and docking studies of new schiff bases of disalicylic acid methylene-based derivatives as dual-target antibacterial agents” (Frontiers in Chemistry, 2024) are described below.

In brackets after ≈: the same amount, converted by molar mass. Read-outs that look alike come from different tables or passages of the source.

The test system of one data set is B. subtilis. As to the kind of experiment: MIC/MBC assay, twofold serial dilution. It counts as cell-based, Bacillus subtilis. As to conditions: Bacillus subtilis; for MBC: read-out: MBC; for MIC: read-out: MIC. On the procedure:
(§1) The results of this in vitro assay test are consistent with the findings of the antimicrobial sensitivity test. […] It has lower antimicrobial activity than ciprofloxacin against all pathogens tested.
(§2) The MBC differs from the MIC. […]
(§3) 4.2.2. Minimum inhibitory concentration assay
(§4) In 96-well microtiter plates and […] of fresh bacterial culture of a single McFarland unit overnight, a double serial dilution of each compound […] in sterile standard saline were prepared to every single source well. Ciprofloxacin antibiotic (5 mg / mL - 1) and normal saline were included as standard reference in each assay. The plates were incubated at 37 0C overnight. As an indicator of bacterial growth, […] of p-iodonitrotetrazolium violet (INT) was added to each well and incubated at 37 0C for 30 […]
(§5) min. MIC values are recorded as the lowest concentration of the extract that completely inhibited bacterial growth that is clear well. The colorless tetrazolidium salt acts as an electron accepter and is reduced to a red colored formazan product by biological activity organisms. Where bacterial growth was inhibited, the solution in the well remained clear after incubation with INT. […]

A further data set deals with S. aureus. As to the kind of experiment: MIC/MBC assay, twofold serial dilution. It counts as cell-based, Staphylococcus aureus. As to conditions: for MBC: read-out: MBC. On the procedure:
as §1, §2, §3, §4, §5

In the next data set the test system is E. coli. As to the kind of experiment: MIC/MBC assay, twofold serial dilution. It counts as cell-based, Escherichia coli. As to conditions: Escherichia coli; for MBC: read-out: MBC; for MIC: read-out: MIC. As to the method:
as §1, §2, §3, §4, §5

The next data set relates to P. aeruginosa. As to the kind of experiment: MIC/MBC assay, twofold serial dilution. Particulars: Pseudomonas aeruginosa; for MBC: read-out: MBC; for MIC: read-out: MIC. It counts as cell-based, Pseudomonas aeruginosa. As to the method: as §1, §2, §3, §4, §5
The test system of data set [1] is S. aureus (ATCC 43300) (MRSA). As to the kind of experiment: Antibacterial assay against multi-drug resistant strains (MIC/MBC). It counts as cell-based, Staphylococcus aureus. As to conditions: Staphylococcus aureus, S. aureus ATCC 43300 (MRSA); for MBC: read-out: MBC; for MIC: read-out: MIC.
A further data set deals with E. coli (ATCC BAA-196). Described as above. It counts as cell-based, Escherichia coli. As to conditions: Escherichia coli; for MBC: ATCCBAA196; for MIC: ATCCBAA196, read-out: MIC.
In data set [2] the test system is P. aeruginosa (ATCC BAA-2111). The data set is described as above. It counts as cell-based, Pseudomonas aeruginosa. Particulars: Pseudomonas aeruginosa; for MBC: ATCCBAA2111; for MIC: ATCCBAA2111, read-out: MIC.
Data set [3] is described as follows: Cell viability assay (MTT). It counts as cell-based. As to conditions: human, MCF-10A cells (normal mammary gland epithelial cell line), 4-day incubation. On the procedure: The vitality of the investigated compounds was assessed using the MCF-10A cell line, which is a normal human mammary gland epithelial cell line. Following a 4-day incubation period on MCF-10A cells with a concentration of 50 µM for each compound being studied, the viability of the cells was assessed using the MTT test ([Hisham et al., 2022]; [Mahmoud et al., 2022]).
4.2.3. Cell Viability assay
MTT assay was carried out to study the effect of compounds on mammary epithelial cells (MCF-10A). The medium in which cells were propagated contained Dulbecco's modified Eagle's medium (DMEM)/ Ham's F-12 medium (1:1) supplemented with epidermal growth factor (20 ng/mL), hydrocortisone (500 ng/mL), insulin (10 μg/mL), 2 mM glutamine and 10% fetal calf serum. After every 2-3 days, the cells were passaged using trypsin ethylenediamine tetra acetic acid (EDTA). The cells were seeded at a density of 10^4 cells mL-1 in flat-bottomed culture plates containing 96 wells each. After 24 h, medium was removed from the plates and the compounds in (in 0.1% DMSO) were added (in 200 μL medium to yield a final concentration of 0.1% v/v) to the wells of plates. A single compound was designated with four wells followed by incubation of plates for 96h at 37°C. After incubation, medium was removed completely from the plates followed by addition of MTT (0.4 mg/mL in medium) to each well and subsequent incubation of plates for 3h. MTT (along with the medium) was removed and DMSO (150μL) was added to each well of the culture plates, followed by vortexing and subsequent measurement of absorbance (at 540 nm) using microplate reader. The data are shown as percentage inhibition of proliferation in comparison with controls

A further data set has as its system Gram-positive bacteria. Put plainly: MBC assay, Gram-positive bacteria together. It counts as cell-based. As to conditions: Gram-positive bacteria (B. subtilis, S. aureus). The text has this:
The MBC differs from the MIC.

The next data set concerns A. flavus. Put plainly: Antifungal assay (MIC/MFC), twofold serial dilution. As to conditions: for MIC: A. flavus.
A further data set relates to C. albicans. The description is as above. As to conditions: Candida albicans.
Setting [4] is: Staphylococcus aureus, read-out: MIC.

As to `O=C1Nc2ccc(Br)cc2/C1=N/NC(=O)c1cc(Cc2cc(Cl)c(O)c(C(=O)N/N=C3\C(=O)Nc4ccc(Br)cc43)c2)cc(Cl)c1O` [Compound 6c], the MBC with B. subtilis worked out at 0.051 ± 0.003 µM (≈ 0.0409 µg/mL); with S. aureus (Staphylococcus aureus), 0.045 ± 0.002 µM (≈ 0.0361 µg/mL); with E. coli, 0.088 ± 0.006 µM (≈ 0.0705 µg/mL); in the data set on P. aeruginosa, 0.085 ± 0.006 µM (≈ 0.0681 µg/mL); in data set [1], 7.1 ± 0.5 µM (≈ 5.69 µg/mL); with E. coli (ATCC BAA-196), 8.2 ± 0.6 µM (≈ 6.57 µg/mL). For the same compound, the MBC is 9.2 ± 0.6 µM (≈ 7.37 µg/mL) in [2] and 0.028 to 0.058 µM (≈ 0.0224 to 0.0465 µg/mL) with Gram-positive bacteria. For the same compound, the MIC is 0.033 ± 0.002 µM (≈ 0.0264 µg/mL) with B. subtilis; 0.029 ± 0.002 µM (≈ 0.0232 µg/mL) in the data set with S. aureus; 0.029 µM (≈ 0.0232 µg/mL) with S. aureus (setting [4]); 0.066 ± 0.004 µM (≈ 0.0529 µg/mL) in the data set on E. coli; 0.065 ± 0.005 µM (≈ 0.0521 µg/mL) in the data set with P. aeruginosa; 4.7 ± 0.2 µM (≈ 3.77 µg/mL) in [1]. For the same compound, the MIC is 5.3 ± 0.2 µM (≈ 4.25 µg/mL) with E. coli (ATCC BAA-196); 6.85 ± 0.5 µM (≈ 5.49 µg/mL) in data set [2]; 18.20 ± 1 µM (≈ 14.6 µg/mL) in the data set with A. flavus; 14.5 to 19.5 µM (≈ 11.6 to 15.6 µg/mL) with A. flavus (Aspergillus flavus); 21.3 ± 1 µM (≈ 17.1 µg/mL) in the data set with C. albicans. For the same compound, the viability at 96 h, 50 µM in data set [3] was 91%. For the same compound, the MFC against A. flavus (Aspergillus flavus) came to 35.9 ± 2 µM (≈ 28.8 µg/mL); against C. albicans it was 44.8 ± 3 µM (≈ 35.9 µg/mL).

Consider `COc1ccc2c(c1)/C(=N/NC(=O)c1cc(Cc3cc(Cl)c(O)c(C(=O)N/N=C4\C(=O)Nc5ccc(OC)cc54)c3)cc(Cl)c1O)C(=O)N2` [Compound 6e], for which the MBC with B. subtilis turned out to be 0.058 ± 0.003 µM (≈ 0.0408 µg/mL); with S. aureus (Staphylococcus aureus), 0.054 ± 0.003 µM (≈ 0.038 µg/mL); in the data set with E. coli, 0.095 ± 0.006 µM (≈ 0.0668 µg/mL); in the data set with P. aeruginosa, 0.097 ± 0.006 µM (≈ 0.0682 µg/mL); in [1], 7.8 ± 0.5 µM (≈ 5.49 µg/mL); against E. coli (ATCC BAA-196), 9.3 ± 0.6 µM (≈ 6.54 µg/mL). For the same compound, the minimum bactericidal concentration (MBC) in data set [2] was 10.4 ± 0.7 µM (≈ 7.32 µg/mL); in the data set on Gram-positive bacteria, 0.028 to 0.058 µM (≈ 0.0197 to 0.0408 µg/mL). For the same compound, the MIC in the data set on B. subtilis is 0.037 ± 0.002 µM (≈ 0.026 µg/mL); with S. aureus (setting [4]), 0.035 ± 0.002 µM (≈ 0.0246 µg/mL); with E. coli it was 0.069 ± 0.004 µM (≈ 0.0485 µg/mL); in the data set with P. aeruginosa, 0.069 ± 0.005 µM (≈ 0.0485 µg/mL); in [1] it was 5.9 ± 0.2 µM (≈ 4.15 µg/mL); in the data set with E. coli (ATCC BAA-196) it was 6.25 ± 0.25 µM (≈ 4.4 µg/mL). Moreover, the minimum inhibitory concentration (MIC) in [2] is 7.15 ± 0.5 µM (≈ 5.03 µg/mL); in the data set with A. flavus, 19.50 ± 1 µM (≈ 13.7 µg/mL); with A. flavus (Aspergillus flavus), 14.5 to 19.5 µM (≈ 10.2 to 13.7 µg/mL); against C. albicans, 22.9 ± 1 µM (≈ 16.1 µg/mL). This compound registered a viability at 96 h, 50 µM in data set [3] of 92%. The minimum fungicidal concentration (MFC) with A. flavus (Aspergillus flavus) amounted to 40.2 ± 3 µM (≈ 28.3 µg/mL); in the data set with C. albicans, 50.2 ± 3 µM (≈ 35.3 µg/mL).

The MBC is the lowest tested concentration that kills the bacteria rather than only halting them. For orientation: MIC means the lowest concentration that inhibits growth of the organism. By viability is commonly meant a read-out of living cells in per cent, often relative to untreated cells. One may read the MFC as the smallest concentration meeting the test's criterion for killing the fungus. Read a low MFC as greater fungicidal potency.
